Tests used:
[1] = Veinous thrombosis: veinous anti-thrombus activity; type: in vivo; details: 100 mg/kg I.P., 4 to 5 hours after administration; for inhibition in vivo at 100 mg/kg: Rattus norvegicus, ip, read-out: Diminution of veinous thrombus
Description: The technique used is similar to the one described by Peterson-Zucker in Thrombo.Diath.Haemorh. 23, 1, (1970).
An occlusive thrombus is created in the […] vena cava of a rat by the combined action of an endothelial alteration and a veinous stasis for 15 mins. and 4 to 5 hours after administration of the product to be tested (100 mg/kg I.P.).

[2] = Anti-ulcer activity: ulcer caused by aspirin; type: in vivo, rat (male Wistar); details: 100 mg/kg I.P.; aspirin 192 mg/kg per os; standardised to control batch and cimetidine (index 1)
Description: The experiment is carried out on male Wistar rats of 180 to 200 g. The products to be tested are administered at 100 mg/kg I.P. (unless indicated to the contrary in Table IV).
At t=0, the rats are made to fast and a first administration of the product to be tested is made.
At t=18 hours, 2 ml of an ulcer-forming suspension with 192 mg of aspirin/kg are administered per os then a second administration of the product to be tested is made.
At t=22 hours, the animals are sacrificed and the ulcers are marked as follows: small point-like ulcers: mark 1 more extensive ulcers: mark 3 highly extensive or very deep ulcers: mark 9
This marking is standardised with respect to a control batch and to cimetidine (a reference product) to which index 1 has been allocated.

[3] = Acute toxicity in the mouse by the I.P. route; type: in vivo; details: for LD50: read-out: DL-50 (lethal dose involving the death of half of the animals)
Description: The acute toxicity was studied in the mouse by the I.P. route. It is expressed in the form of DL-50 (lethal dose involving the death of half of the animals) or DL-0 (maximum non-lethal dose).

[4] = Anti-hypoxic activity: survival to hypoxia (nitrogen-oxygen 95:5); type: in vivo, mouse (Swiss male); details: I.P., 1/10th of LD-50 or 100 mg/kg when LD-0 ≥ 800 mg/kg; up to 15 minutes; mouse
Description: The experiment is carried out on batches of 20 Swiss male mice weighing from 20 to 30 g. Each product to be tested is administered to the mice by intraperitoneal route at a dose corresponding to 1/10th of the LD-50 or at a dose of 100 mg/kg when the LD-0 is higher than or equal to 800 mg/kg. The mice are placed in a nitrogen-oxygen (95:5) v/v atmosphere. The survival time of the mice is then measured up to 15 minutes maximum.
The results shown in Table VII are expressed in percentage of survival with respect to a non-treated control batch and a batch treated with an anti-hypoxic reference product [specialty known under the trade name of "Duxil" and which is constituted by a mixture of Almitrine bis-methanesulfonate and of Raubasine in the weight ratio 3:1], the anti-hypoxic reference product being administered at the dose of 18 mg/kg I.P.

SMILES | inhibition in vivo at 100 mg/kg [1] [%] | Diminution of veinous thrombus ([1]; rat) | Ulcer index [2] | DL-0 (maximum non-lethal dose) ([3]; I.P.) [mg/kg IP] | LD50 ([3]; in vivo, ip, I.P.) [mg/kg] | Survival (survival percentage to hypoxic aggression) [4] | DL-0 (maximum non-lethal dose) ([3]; in vivo, ip) [mg/kg IP]
O=[N+]([O-])c1ccc(C(O)c2ccc(O[C@@H]3OC[C@@H](O)[C@H](O)[C@H]3O)cc2)cc1 (single isomer, unassigned) [Example 98, [4-(4-nitro-α-hydroxybenzyl)-phenyl]-β-D-xylopyranoside] | ≥ 50 |  |  |  |  |  | 
O=[N+]([O-])c1ccc(C(O)c2ccc(O[C@@H]3OC[C@@H](O)[C@H](O)[C@H]3O)cc2)cc1 (single isomer, unassigned) [Example 99, [4-(4-nitro-α-hydroxybenzyl)-phenyl]-β-D-xylopyranoside] |  | + (inhibition of 30 to 49%) |  |  |  |  | 
O=C(c1ccc(O[C@@H]2OC[C@@H](O)[C@H](O)[C@H]2O)cc1)c1cccc([N+](=O)[O-])c1 [Example 2] | 30 to 49 |  | 0.84 | > 800 |  |  | 
O=C(c1ccc(Br)cc1)c1ccc(O[C@@H]2OC[C@@H](O)[C@H](O)[C@H]2O)cc1 [Example 4] | 30 to 49 |  | 1.04 | > 800 |  |  | 
O=C(c1ccc(O[C@@H]2OC[C@@H](O)[C@H](O)[C@H]2O)cc1)c1ccccc1Cl [Example 5] | ≥ 50 |  |  | > 800 |  |  | 
O=C(c1ccc(O[C@@H]2OC[C@@H](O)[C@H](O)[C@H]2O)cc1)c1ccccc1[N+](=O)[O-] [Example 6] | 30 to 49 |  | 0.45 |  | 600 |  | 
Nc1ccccc1C(=O)c1ccc(O[C@@H]2OC[C@@H](O)[C@H](O)[C@H]2O)cc1 [Example 7] | ≥ 50 |  |  | > 800 |  |  | 
COc1ccc(C(=O)c2ccc(O[C@@H]3OC[C@@H](O)[C@H](O)[C@H]3O)cc2)cc1 [Example 17] | 30 to 49 |  | 0.69 |  | 1600 |  | 
O=C(c1ccccc1)c1ccc(O[C@@H]2OC[C@@H](O)[C@H](O)[C@H]2O)cc1 [Example 18] | 30 to 49 |  |  |  | > 1000 |  | 
Cc1cc(C(=O)c2ccc([N+](=O)[O-])cc2)cc(C)c1O[C@@H]1OC[C@@H](O)[C@H](O)[C@H]1O [Example 23] | 30 to 49 |  | 0.52 |  | 750 |  | 
Cc1cc(C(=O)c2ccc([N+](=O)[O-])cc2)ccc1O[C@@H]1OC[C@@H](O)[C@H](O)[C@H]1O [Example 29] | 30 to 49 |  |  | > 800 |  |  | 
CC(=O)N[C@H]1[C@H](Oc2ccc(C(=O)c3ccc(Cl)cc3)cc2)O[C@H](CO)[C@@H](O)[C@@H]1O [Example 43] |  |  | 0.52 |  |  | +++ (higher than or equal to 80%) | > 800
CC(=O)N[C@H]1[C@H](Oc2ccc(C(=O)c3ccc([N+](=O)[O-])cc3)cc2)O[C@H](CO)[C@@H](O)[C@@H]1O [Example 44, [4-(4-nitrobenzoyl)-phenyl]-2-(N-acetyl)-β-D-glucosaminide] |  |  | 0.385 |  |  | +++ (higher than or equal to 80%) | > 800
O=C(c1ccccc1)c1cccc(O[C@@H]2OC[C@@H](O)[C@H](O)[C@H]2O)c1 [Example 45] | 30 to 49 |  | 1.11 | > 800 |  |  | 
CC(=O)O[C@@H]1[C@@H](OC(C)=O)[C@H](Oc2ccc(C(=O)c3ccccc3C)cc2)OC[C@H]1OC(C)=O [Example 69] | 30 to 49 |  | 0.78 |  | 900 |  | 
CC(=O)O[C@@H]1[C@@H](OC(C)=O)[C@H](Oc2ccc(C(=O)c3ccccc3Cl)cc2)OC[C@H]1OC(C)=O [Example 70] | 30 to 49 |  | 0.56 | > 800 |  |  | 
Cc1cc(C)c(C(=O)c2cccc(O[C@@H]3OC[C@@H](O)[C@H](O)[C@H]3O)c2)c(C)c1 [Example 71] | 30 to 49 |  | 0.98 | > 800 |  |  | 

SMILES | inhibition in vivo at 100 mg/kg [1] [%] | Diminution of veinous thrombus ([1]; rat) | Ulcer index [2] | DL-0 (maximum non-lethal dose) ([3]; I.P.) [mg/kg IP] | LD50 ([3]; in vivo, ip, I.P.) [mg/kg] | Survival (survival percentage to hypoxic aggression) [4] | DL-0 (maximum non-lethal dose) ([3]; in vivo, ip) [mg/kg IP]
CC(=O)O[C@@H]1[C@@H](OC(C)=O)[C@H](Oc2ccc(C(=O)c3ccc(Br)cc3)cc2)OC[C@H]1OC(C)=O [Example 75] | 30 to 49 |  | 0.32 | > 800 |  |  | 
CC(=O)O[C@@H]1[C@@H](OC(C)=O)[C@H](Oc2ccc(C(=O)c3ccc(N)cc3)cc2)OC[C@H]1OC(C)=O [Example 77] | 30 to 49 |  |  | > 800 |  |  | 
COc1ccc(C(=O)c2ccc(O[C@@H]3OC[C@@H](OC(C)=O)[C@H](OC(C)=O)[C@H]3OC(C)=O)cc2)cc1 [Example 81] | 30 to 49 |  | 0.64 | > 800 |  |  | 
OC(c1ccc(O[C@@H]2OC[C@@H](O)[C@H](O)[C@H]2O)cc1)c1ccc(Cl)cc1Cl (some centres unmarked) [Example 86] | 30 to 49 |  | 0.50 |  | > 350 |  | 
O=[N+]([O-])c1cccc(C(O)c2ccc(O[C@@H]3OC[C@@H](O)[C@H](O)[C@H]3O)cc2)c1 (some centres unmarked) [Example 87] | ≥ 50 |  | 0.35 |  | > 600 |  | 
OC(c1ccccc1)c1ccc(O[C@@H]2OC[C@@H](O)[C@H](O)[C@H]2O)cc1 (some centres unmarked) [Example 92] | 30 to 49 |  |  |  | 1400 |  | 
CC(=O)N[C@H]1[C@H](Oc2ccc(C(O)c3ccc(Cl)cc3)cc2)O[C@H](CO)[C@@H](O)[C@@H]1O (some centres unmarked) [Example 100] |  |  | 0.35 |  |  | ++ (from 50 to 79%) | > 800
CC(=O)O[C@@H]1[C@@H](OC(C)=O)[C@H](Oc2ccc(C(=O)c3ccccc3C)cc2C)OC[C@H]1OC(C)=O [Example 103] |  |  | 0.65 |  |  | ++ (from 50 to 79%) | > 800
CC(=O)N[C@H]1[C@H](Oc2ccc(C(=O)c3ccc([N+](=O)[O-])cc3)cc2)O[C@H](COC(C)=O)[C@@H](OC(C)=O)[C@@H]1OC(C)=O [Example 109] |  |  | 0.65 |  |  | ++ (from 50 to 79%) | > 800
CC(=O)OC[C@H]1O[C@@H](Oc2ccc(C(=O)c3ccc([N+](=O)[O-])cc3)cc2)[C@H](OC(C)=O)[C@@H](OC(C)=O)[C@@H]1OC(C)=O [Example 110] |  |  | 0.71 |  |  | ++ (from 50 to 79%) | > 800
CC(=O)N[C@H]1[C@H](Oc2ccc(C(=O)c3ccc(C)cc3)cc2)O[C@H](CO)[C@@H](O)[C@@H]1O [Example 111] |  |  | 0.42 |  | 750 | ++ (from 50 to 79%) | 
CC(=O)N[C@H]1[C@H](Oc2ccc(C(=O)c3ccc(C)cc3)cc2)O[C@H](COC(C)=O)[C@@H](OC(C)=O)[C@@H]1OC(C)=O [Example 112] |  |  | 0.68 |  |  | ++ (from 50 to 79%) | > 800
CC(=O)O[C@@H]1[C@@H](OC(C)=O)[C@H](Oc2ccc(C(=O)c3ccc(N(C)C)cc3)cc2)OC[C@H]1OC(C)=O [Example 116] |  |  | 0.44 |  |  | + (from 30 to 49%) | > 800
OC(c1ccccc1)c1cccc(O[C@@H]2OC[C@@H](O)[C@H](O)[C@H]2O)c1 (some centres unmarked) [Example 117] |  |  | 0.59 |  | 1000 | ++ (from 50 to 79%) | 
CC(=O)N[C@H]1[C@H](Oc2ccc(C(=O)c3ccccc3C)cc2)O[C@H](CO)[C@@H](O)[C@@H]1O [Example 121] |  |  | 0.39 |  |  | + (from 30 to 49%) | > 800
CC(=O)N[C@H]1[C@H](Oc2ccc(C(=O)c3ccccc3C)cc2C)O[C@H](CO)[C@@H](O)[C@@H]1O [Example 122] |  |  | 0.91 |  |  | + (from 30 to 49%) | > 800

— patent publication US4432973A, “Benzoyl- and α-hydroxybenzyl-phenyl-glycosides and application thereof in therapeutics” (Societe de Recherches Industrielles (S.O.R.I.), priority 1980, dated 1984)
